Reference: patent US20020137929A1, “1 - (3-heterocyclylphenyl) isothiourea, -isourea, -guanidine and -amidine herbicidal agents” (Intellectual Property Department, BASF Aktiengesellschaft, priority 1998, published 2002)

Assays:
[1] = system: ECHORC (Watergrass (Calif.)); test: Preemergence weed control under flooded paddy conditions; type: in vivo, Echinochloa oryzoides; conditions: rated 3-4 weeks after treatment
How it was run: (§1)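 Seeds or propagules sown in top 0.5 cm of silt loam soil, flooded 1.5 to 3 cm above surface throughout. Compound in 50/50 v/v aqueous/acetone pipetted into flood water at about 0.0313 to 0.500 kg/ha. Visual 0-9 rating versus control after three to four weeks in greenhouse.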

CYPIR (Rice Flatsedge) = test: as above; type: in vivo, Cyperus iria; conditions: rated 3-4 weeks after treatment
How it was run: as §1

ABUTH (Velvetleaf) = test: Preemergence herbicidal evaluation; type: in vivo, Abutilon theophrasti; conditions: rated 4-5 weeks after treatment
How it was run: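 Seeds were mixed with potting soil and planted on about one inch of soil, then sprayed with test compound in aqueous acetone at about 0.0156 to 0.500 kg per hectare. Plants grew under standard greenhouse care and were visually rated 0-9 against untreated controls 4-5 weeks post-treatment.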

[2] = system: SAGPY (Arrowhead (Pygmaea)); test: Preemergence weed control under flooded paddy conditions; type: in vivo, Sagittaria pygmaea; conditions: rated 3-4 weeks after treatment
How it was run: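 Herbicidal effect is scored visually on a 0-9 scale against an untreated control, three to four weeks after compounds are pipetted into the flood water (1.5 to 3 cm deep) over seeds planted in silt loam at 0.5 cm depth. Rates: about 0.0313 to 0.500 kg/ha.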

[3] = system: TRZAWR (Wheat, Winter, cv Riband); test: Preemergence herbicidal evaluation; type: in vivo, Triticum aestivum; conditions: rated 4-5 weeks after treatment
Source text: Results of herbicide evaluation are expressed on a rating scale (0-9). The scale is based upon a visual observation of plant stand, vigor, malformation, size, chlorosis and overall plant appearance as compared with a control.
The preemergence herbicidal activity of the test compounds of the present invention is exemplified by the following tests in which the seeds of a variety of monocotyledonous and dicotyledonous plants are separately mixed with potting soil and planted on top of approximately one inch of soil in separate pint cups. After planting, the cups are sprayed with the selected aqueous acetone solution containing test compound in sufficient quantity to provide the equivalent of about 0.0156 to 0.500 kg per hectare of test compound per cup. The treated cups are then placed on greenhouse benches, watered and cared for in accordance with conventional greenhouse procedures. From four to five weeks after treatment, the tests are terminated and each cup is examined and rated according to the rating system provided in Example 37.
The compounds evaluated are reported by compound number given in Example 37.

| SMILES | Preemergence herbicidal rating ABUTH (ABUTH (Velvetleaf); rate 0.0156 kg/ha) | Preemergence herbicidal rating ABUTH (ABUTH (Velvetleaf); rate 0.0313 kg/ha) | Preemergence herbicidal rating ABUTH (ABUTH (Velvetleaf); rate 0.0625 kg/ha) | Preemergence herbicidal rating ABUTH (ABUTH (Velvetleaf); rate 0.1250 kg/ha) | Preemergence herbicidal rating ABUTH (ABUTH (Velvetleaf); rate 0.2500 kg/ha) | Preemergence herbicidal rating TRZAWR ([3]; rate 0.0156 kg/ha) | Preemergence herbicidal rating TRZAWR ([3]; rate 0.0313 kg/ha) | Preemergence herbicidal rating TRZAWR ([3]; rate 0.0625 kg/ha) | Preemergence herbicidal rating TRZAWR ([3]; rate 0.1250 kg/ha) | Preemergence herbicidal rating TRZAWR ([3]; rate 0.2500 kg/ha) | herbicidal effect rating, ECHORC ([1]; 0.0313 kg/ha) | herbicidal effect rating, ECHORC ([1]; 0.0625 kg/ha) | herbicidal effect rating, ECHORC ([1]; 0.1250 kg/ha) | herbicidal effect rating, ECHORC ([1]; 0.2500 kg/ha) | herbicidal effect rating, CYPIR (CYPIR (Rice Flatsedge); 0.0313 kg/ha) | herbicidal effect rating, CYPIR (CYPIR (Rice Flatsedge); 0.0625 kg/ha) | herbicidal effect rating, CYPIR (CYPIR (Rice Flatsedge); 0.1250 kg/ha) | herbicidal effect rating, CYPIR (CYPIR (Rice Flatsedge); 0.2500 kg/ha) | herbicidal effect rating, SAGPY ([2]; 0.0313 kg/ha) | herbicidal effect rating, SAGPY ([2]; 0.0625 kg/ha) | also measured |
| --- | --- | --- | --- | --- | --- | --- | --- | --- | --- | --- | --- | --- | --- | --- | --- | --- | --- | --- | --- | --- | --- |
| COC(=O)COC(=O)CN1C(=O)CSC1=Nc1cc(-n2c(=O)cc(C(F)(F)F)n(C)c2=O)c(F)cc1Cl [Compound 108, 2-{{2-Chloro-5-[3,6-dihydro-3-methyl-2,6-dioxo-4-(trifluoromethyl)-1(2H)-pyrimidinyl]-4-fluorophenyl}imino}-4-oxo-3-thiazolidineacetic acid, ester with methyl glycolate] | 0.0 | 0.0 | 4.0 | 8.0 | 9.0 | 0.0 | 0.0 | 0.0 | 2.0 | 5.0 |  |  |  |  |  |  |  |  |  |  | ECHORC herbicidal effect rating ([1]; 0.0313 kg/ha): 0.0; ECHORC herbicidal effect rating ([1]; 0.0625 kg/ha): 0.0; ECHORC herbicidal effect rating ([1]; 0.1250 kg/ha): 0.0; ECHORC herbicidal effect rating ([1]; 0.2500 kg/ha): 0.0; CYPIR herbicidal effect rating (CYPIR (Rice Flatsedge); 0.0313 kg/ha): 4.0; CYPIR herbicidal effect rating (CYPIR (Rice Flatsedge); 0.0625 kg/ha): 6.0; CYPIR herbicidal effect rating (CYPIR (Rice Flatsedge); 0.1250 kg/ha): 7.0; CYPIR herbicidal effect rating (CYPIR (Rice Flatsedge); 0.2500 kg/ha): 7.0; SAGPY herbicidal effect rating ([2]; 0.0313 kg/ha): 0.0; SAGPY herbicidal effect rating ([2]; 0.0625 kg/ha): 0.0; SAGPY herbicidal effect rating ([2]; 0.1250 kg/ha): 3.0; SAGPY herbicidal effect rating ([2]; 0.2500 kg/ha): 6.0 |
| CC(C)OC(=O)CN1C(=O)CSC1=Nc1cc(-n2c(=O)cc(C(F)(F)F)n(C)c2=O)c(F)cc1Cl [Compound 110] | 5.5 | 9.0 | 9.0 | 9.0 | 9.0 | 0.0 | 1.0 | 1.0 | 1.0 | 1.0 |  |  |  |  |  |  |  |  |  |  | ECHORC herbicidal effect rating ([1]; 0.0313 kg/ha): 7.0; ECHORC herbicidal effect rating ([1]; 0.0625 kg/ha): 7.0; ECHORC herbicidal effect rating ([1]; 0.1250 kg/ha): 7.0; ECHORC herbicidal effect rating ([1]; 0.2500 kg/ha): 9.0; CYPIR herbicidal effect rating (CYPIR (Rice Flatsedge); 0.0313 kg/ha): 3.0; CYPIR herbicidal effect rating (CYPIR (Rice Flatsedge); 0.0625 kg/ha): 4.0; CYPIR herbicidal effect rating (CYPIR (Rice Flatsedge); 0.1250 kg/ha): 7.0; CYPIR herbicidal effect rating (CYPIR (Rice Flatsedge); 0.2500 kg/ha): 8.0; Preemergence herbicidal rating ABUTH (ABUTH (Velvetleaf); rate 0.5000 kg/ha): 9.0; SAGPY herbicidal effect rating ([2]; 0.0313 kg/ha): 6.0; SAGPY herbicidal effect rating ([2]; 0.0625 kg/ha): 7.0; SAGPY herbicidal effect rating ([2]; 0.1250 kg/ha): 7.0; SAGPY herbicidal effect rating ([2]; 0.2500 kg/ha): 8.0 |
| Cn1c(C(F)(F)F)cc(=O)n(-c2cc(N=C3SCC(=O)N3CC(=O)OC3CCCC3)c(Cl)cc2F)c1=O [Compound 120, Cyclopentyl 2-{{2-chloro-5-[3,6-dihydro-3-methyl-2,6-dioxo-4-(trifluoromethyl)-1(2H)-pyrimidinyl]-4-fluorophenyl}imino}-4-oxo-3-thiazolidineacetate] | 0.0 | 9.0 | 9.0 | 9.0 | 9.0 | 0.0 | 0.0 | 0.0 | 0.0 | 4.0 | 7.0 | 8.0 | 9.0 | 9.0 | 2.0 | 2.5 | 3.5 | 9.0 | 0.0 | 0.0 | herbicidal effect rating, SAGPY ([2]; 0.1250 kg/ha): 2.0; herbicidal effect rating, SAGPY ([2]; 0.2500 kg/ha): 7.5 |
| CC(C)COC(=O)CN1C(=O)CSC1=Nc1cc(-n2c(=O)cc(C(F)(F)F)n(C)c2=O)c(F)cc1Cl [Compound 121, Isobutyl 2-{{2-chloro-5-[3,6-dihydro-3-methyl-2,6-dioxo-4-(trifluoromethyl)-1(2H)-pyrimidinyl]-4-fluorophenyl}imino}-4-oxo-3-thiazolidineacetate] | 9.0 | 9.0 | 9.0 | 9.0 | 9.0 | 0.0 | 2.0 | 3.0 | 7.0 | 8.0 | 4.0 | 5.0 | 6.0 | 6.0 | 4.0 | 4.0 | 8.0 | 8.0 | 0.0 | 4.0 | herbicidal effect rating, SAGPY ([2]; 0.1250 kg/ha): 4.0; herbicidal effect rating, SAGPY ([2]; 0.2500 kg/ha): 6.0 |
| Cn1c(C(F)(F)F)cc(=O)n(-c2cc(N=C3SCC(=O)N3CC(=O)OCC3CCCCC3)c(Cl)cc2F)c1=O [Compound 123, Cyclohexylmethyl 2-{{2-chloro-5-[3,6-dihydro-3-methyl-2,6-dioxo-4-(trifluoromethyl)-1(2H)-pyrimidinyl]-4-fluorophenyl}imino}-4-oxo-3-thiazolidineacetate] | 9.0 | 9.0 | 9.0 | 9.0 | 9.0 | 0.0 | 0.0 | 0.0 | 1.0 | 1.0 | 7.0 | 9.0 | 9.0 | 9.0 | 6.0 | 5.0 | 9.0 | 9.0 | 5.0 | 6.0 | Preemergence herbicidal rating ABUTH (ABUTH (Velvetleaf); rate 0.5000 kg/ha): 9.0; herbicidal effect rating, SAGPY ([2]; 0.1250 kg/ha): 6.0; herbicidal effect rating, SAGPY ([2]; 0.2500 kg/ha): 8.0; Preemergence herbicidal rating TRZAWR ([3]; rate 0.5000 kg/ha): 1.0 |
| CCOC(=O)CN1C(=O)C(C(=O)OC)SC1=Nc1cc(-n2c(=O)cc(C(F)(F)F)n(C)c2=O)c(F)cc1Cl (stereo not shown) [Compound 128, 5-Carboxy-2-{{2-chloro-5-[3,6-dihydro-3-methyl-2,6-dioxo-4-(trifluoromethyl)-1(2H)-pyrimidinyl]-4-fluorophenyl}imino}-4-oxo-3-thiazolidineacetic acid, 3-ethyl methyl ester] | 0.0 | 0.0 | 1.0 | 3.0 | 9.0 | 0.0 | 0.0 | 0.0 | 0.0 | 0.0 | 5.0 | 7.0 | 7.0 | 9.0 | 0.0 | 4.0 | 4.0 | 4.0 | 0.0 | 3.0 | herbicidal effect rating, SAGPY ([2]; 0.1250 kg/ha): 4.0; herbicidal effect rating, SAGPY ([2]; 0.2500 kg/ha): 6.0 |
| Cc1ccccc1CN1C(=O)CSC1=Nc1cc(-n2c(=O)cc(C(F)(F)F)n(C)c2=O)c(F)cc1Cl [Compound 129, 3-{4-Chloro-2-fluoro-5-{[3-(o-methylbenzyl)-4-oxo-2-thiazolidinylidene]amino}phenyl}-1-methyl-6-(trifluoromethyl)-2,4 (1H,3H)-pyrimidinedione] | 0.0 | 1.0 | 9.0 | 9.0 | 9.0 | 0.0 | 0.0 | 0.0 | 1.0 | 1.0 | 9.0 | 9.0 | 9.0 | 9.0 | 4.0 | 5.0 | 7.0 | 9.0 | 0.0 | 0.0 | herbicidal effect rating, SAGPY ([2]; 0.1250 kg/ha): 2.0; herbicidal effect rating, SAGPY ([2]; 0.2500 kg/ha): 7.0 |
